Results from patent US6887202B2, “Systems and methods for monitoring health and delivering drugs transdermally” (Science Applications International Corporation, priority 2000, dated 2005).
Like-named read-outs stand apart in the source and are kept apart here.

Columns and labels:
[1] = molecular target: T1, α3/β4 nAChR (Rattus norvegicus, UniProt P04757+P12392); assay: Frontal chromatography with α3/β4 nAChR-IAM stationary phase ([3H]-EB marker); assay type: binding
T1 construct: expressed in transfected cells
T1 sequence (P04757 26-499): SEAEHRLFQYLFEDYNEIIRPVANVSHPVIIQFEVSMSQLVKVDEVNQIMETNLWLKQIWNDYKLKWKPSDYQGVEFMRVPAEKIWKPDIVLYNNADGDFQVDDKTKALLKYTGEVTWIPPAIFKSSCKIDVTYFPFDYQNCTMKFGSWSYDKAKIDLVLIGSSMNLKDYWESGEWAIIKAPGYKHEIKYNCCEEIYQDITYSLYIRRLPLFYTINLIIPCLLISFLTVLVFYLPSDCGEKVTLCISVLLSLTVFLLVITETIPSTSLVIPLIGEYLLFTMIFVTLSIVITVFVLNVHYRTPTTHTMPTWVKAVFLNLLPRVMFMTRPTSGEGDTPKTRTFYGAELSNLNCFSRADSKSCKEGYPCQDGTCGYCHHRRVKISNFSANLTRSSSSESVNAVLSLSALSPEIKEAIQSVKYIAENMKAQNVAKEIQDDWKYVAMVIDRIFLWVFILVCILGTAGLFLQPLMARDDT
T1 sequence (P12392 21-495): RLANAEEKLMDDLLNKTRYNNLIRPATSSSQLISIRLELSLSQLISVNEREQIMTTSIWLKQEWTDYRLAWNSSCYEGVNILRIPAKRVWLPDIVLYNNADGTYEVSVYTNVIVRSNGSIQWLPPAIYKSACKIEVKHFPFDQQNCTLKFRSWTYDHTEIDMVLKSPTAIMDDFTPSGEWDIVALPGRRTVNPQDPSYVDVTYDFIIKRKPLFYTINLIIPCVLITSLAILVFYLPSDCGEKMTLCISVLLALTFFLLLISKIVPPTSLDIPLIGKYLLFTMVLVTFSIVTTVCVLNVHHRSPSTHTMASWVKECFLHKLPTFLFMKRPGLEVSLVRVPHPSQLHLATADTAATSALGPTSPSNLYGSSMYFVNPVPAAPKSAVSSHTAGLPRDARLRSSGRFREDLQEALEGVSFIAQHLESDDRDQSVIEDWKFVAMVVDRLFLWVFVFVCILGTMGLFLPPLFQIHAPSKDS
Description: Rat whole forebrain or transfected cells are suspended in 50 mM Tris-HCI, pH 7.4, (buffer A), homogenized for 30 seconds with Brinkmann Polytron, and centrifuged at 40,000×g for 10 min at 4° C. The pellet is resuspended in 6 ml of 2% deoxycholate or 2% cholate in buffer A and stirred for 2 hours. The mixture is centrifuged at 35,000×g for 30 minutes, and the supernatant containing nAChR-deoxycholate solution is collected.
Dried IAM particles are suspended in 4 ml of the obtained detergent solutions containing nAChR subunits or subtypes. For the immobilization of one nAChR subtype, the mixture of IAM-detergent-receptor is stirred for 1 hour at room temperature. The suspension is dialyzed against 2×1 L buffer A for 24 hours at 4° C. The IAM LC support with immobilized nAChRs is then washed with buffer A, centrifuged and the solid collected.
Chromatography based on nAChR-LAMcolumn or nAChR-liposome-Superdex 200 column: The nAChR-IAM particles or nAChR-Superdex gel beads are packed in a HR5/2 glass column and connected to a HPLC pump. […] All chromatographic experiments are performed at flow rate 0.4 ml/min at room temperature.
The chromatographic data is summed up in 1-min intervals and smoothed using the Microsoft Excel program with a 10 point moving average.

[2] = molecular target: T1, α3/β4 nAChR; assay: Ligand binding assay using cell membrane homogenates
[3] = molecular target: GABAA receptor; assay: Frontal chromatography on immobilized GABAA receptor (GR-IAM), [3H]-flunitrazepam marker; assay type: binding, rat
Description: Supernatant is discarded.
All chromatographic experiments are performed at flow rate 0.4 ml/min at room temperature. […] The chromatographic data is summed up in 1-min intervals and smoothed using the Microsoft Excel program with a 10 point moving average.

[4] = molecular target: GABAA receptor; conditions: read-out: Kd, Binding Assays; classical binding assays
[5] = a3/(34-IAM stationary phase (0.5 × 1.3 cm)), read-out: Kd (frontal chromatography)

For `CN1CCCC1c1cccnc1` (single isomer, unassigned; (-)) [(−)-Nicotine], the “mobile phase concentration required to decrease the retention volume of 60 pM [3H]-EB from 9.5 ml to 6 ml” value [1] was 45 nM.
In the case of `c1cncc(OC[C@@H]2CCN2)c1` [A85380], the Kd [1, 5] is reported as 0.0172 ± 0.0005 µM, the “mobile phase concentration required to decrease the retention volume of 60 pM [3H]-EB from 9.5 ml to 6 ml” value ([1]; α3/β4 nAChR column (0.5×1.25 cm)) is reported as 1.7 nM and the Kd [2] is reported as 0.0736 ± 0.0063 µM.
In the case of `CN1[C@@H]2CC[C@H]1C[C@@H](OC(=O)C(CO)c1ccccc1)C2` (stereo partly shown) [Atropine], the Kd [1] is reported as 14.6 µM.
With `C[N+](C)(C)CCOC(N)=O` [Carbachol] the “mobile phase concentration required to decrease the retention volume of 60 pM [3H]-EB from 9.5 ml to 6 ml” value [1] was 1,200 nM, the Kd [1, 5] was 1.28 µM and the Kd [2] was 3.84 µM.
`CN1C(=O)CN=C(c2ccccc2)c2cc(Cl)ccc21` [Diazepam] showed a Kd [3] of 0.001 µM and a Kd [4] of 0.0013 µM.
